Target: T1, Purified P450arom (aromatase) reconstituted with P450-reductase (CPR) (Homo sapiens, UniProt P11511)
T1 sequence (P11511 1-503): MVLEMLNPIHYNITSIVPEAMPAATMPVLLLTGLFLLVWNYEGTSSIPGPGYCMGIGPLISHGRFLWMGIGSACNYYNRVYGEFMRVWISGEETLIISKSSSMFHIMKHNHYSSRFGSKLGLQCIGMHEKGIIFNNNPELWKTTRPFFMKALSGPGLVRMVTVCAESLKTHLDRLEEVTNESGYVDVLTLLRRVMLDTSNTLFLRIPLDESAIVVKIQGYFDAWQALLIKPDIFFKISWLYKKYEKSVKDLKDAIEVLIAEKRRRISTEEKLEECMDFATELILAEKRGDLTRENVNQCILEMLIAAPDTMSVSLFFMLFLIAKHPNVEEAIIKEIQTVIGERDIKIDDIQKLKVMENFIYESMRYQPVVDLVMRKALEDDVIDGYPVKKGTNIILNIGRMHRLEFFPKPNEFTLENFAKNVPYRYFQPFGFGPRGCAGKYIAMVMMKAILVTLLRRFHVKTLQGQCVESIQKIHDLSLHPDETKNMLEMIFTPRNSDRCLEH
Assay: Measurement of aromatase activity by 3H-water method
Type: biochemical
Settings: substrate 0.24 μM [1β-3H, 4-14C] androstenedione, 37° C., 20 minutes

[1] = compound concentration 10 (μmol)
[2] = compound concentration 0.1 (μmol)
[3] = compound concentration 1 (μmol)

| SMILES | % Inhibition [1] [%] | % Inhibition [2] [%] | % Inhibition [3] [%] |
| --- | --- | --- | --- |
| CC(C)(C)O[C@@H]1C[C@@H]2[C@H](CC[C@]3(C)C(=O)CC[C@@H]23)[C@@]2(C)C=CC(=O)C=C12 [HDDG-015] | 54 |  |  |
| CCOC1=C(O)CC[C@@]2(C)C1=CC[C@@H]1[C@@H]2CC[C@]2(C)C(=O)CC[C@@H]12 [HDDG-034] | 88 | 14 | 96 |
| C#CC(C)(C)O[C@@H]1C[C@@H]2[C@H](CC[C@]3(C)C(=O)CC[C@@H]23)[C@@]2(C)C=CC(=O)C=C12 [HDDG-028] | 35 | 18 | 44 |
| C[C@]12C=CC(O)=C(OCc3ccccc3)C1=CC[C@@H]1[C@@H]2CC[C@]2(C)C(=O)CC[C@@H]12 [HDDG-043] | 90 | 18 | 97 |
| CC/C=C/CO[C@@H]1C[C@@H]2[C@H](CC[C@]3(C)C(=O)CC[C@@H]23)[C@@]2(C)C=CC(=O)C=C12 [HDDG-061, (6R,8R,9S,10R,13S,14S)-10,13-dimethyl-6-((E)-pent-2-en-1-yloxy)-7,8,9,10,11,12,13,14,15,16-decahydro-3H-cyclopenta[α]phenanthrene-3,17(6H)-dione] |  | 96 | 93 |
| C[C@]12CCC(=O)C=C1C(Br)C[C@@H]1[C@@H]2CC[C@]2(C)C(=O)CC[C@@H]12 (stereo partly drawn) [HDDG-017] | 64 |  |  |
| C#CCOC1=C(O)C=C[C@@]2(C)C1=CC[C@@H]1[C@@H]2CC[C@]2(C)C(=O)CC[C@@H]12 [HDDG-032] | 93 | 32 | 98 |
| CCO[C@@H]1C[C@@H]2[C@H](CC[C@]3(C)C(=O)CC[C@@H]23)[C@@]2(C)C=CC(=O)C=C12 [HDDG-025] | 39 |  | 19 |
| C[C@]12C=CC(=O)C=C1[C@H](OCC#CCO)C[C@@H]1[C@@H]2CC[C@]2(C)C(=O)CC[C@@H]12 [HDDG-065] |  | 96 | 84 |
| C#CCO[C@@H]1C[C@@H]2[C@H](CC[C@]3(C)C(=O)CC[C@@H]23)[C@@]2(C)C=CC(=O)C=C12 [HDDG-026] | 80 | 10 | 35 |
| CCOC1=C(O)C=C[C@@]2(C)C1=CC[C@@H]1[C@@H]2CC[C@]2(C)C(=O)CC[C@@H]12 [HDDG-007] | 0 |  | 12 |
| C[C@]12C=CC(=O)C=C1[C@H](OCc1ccccc1)C[C@@H]1[C@@H]2CC[C@]2(C)C(=O)CC[C@@H]12 [HDDG-016] | 52 |  |  |
| CO[C@@H]1C[C@@H]2[C@H](CC[C@]3(C)C(=O)CC[C@@H]23)[C@@]2(C)CCC(=O)C=C12 [HDDG-021] | 63 | 0 | 70 |
| CC(=O)OC1=C(O)C=C[C@@]2(C)C1=CC[C@@H]1[C@@H]2CC[C@]2(C)C(=O)CC[C@@H]12 [HDDG-039] | 88 | 33 | 98 |
| CC(=O)O[C@@H]1C[C@@H]2[C@H](CC[C@]3(C)C(=O)CC[C@@H]23)[C@@]2(C)C=CC(=O)C=C12 [HDDG-033] | 100 | 48 | 96 |
| C[C@]12C=CC(=O)C=C1[C@H](OCC#Cc1ccc(Cl)c(Cl)c1)C[C@@H]1[C@@H]2CC[C@]2(C)C(=O)CC[C@@H]12 [HDDG-053, (6R,8R,9S,10R,13S,14S)-6-((3-(3,4-dichlorophenyl)prop-2-yn-1-yl)oxy)-10,13-dimethyl-7,8,9,10,11,12,13,14,15,16-decahydro-3H-cyclopenta[α]phenanthrene-3,17(6H)-dione] |  | 95 | 91 |
| CCCC#CCO[C@@H]1C[C@@H]2[C@H](CC[C@]3(C)C(=O)CC[C@@H]23)[C@@]2(C)C=CC(=O)C=C12 [HDDG-047] | 99 | 42 | 95 |
| CCCCC#CCO[C@@H]1C[C@@H]2[C@H](CC[C@]3(C)C(=O)CC[C@@H]23)[C@@]2(C)C=CC(=O)C=C12 [HDDG-048] | 97 | 48 | 87 |
| C[C@]12C=CC(=O)C(=[N+]=[N-])C1=CC[C@@H]1[C@@H]2CC[C@]2(C)C(=O)CC[C@@H]12 [HDDG-004] | 40 |  | 25 |

Reference: patent publication US8969327B2, “Substituted androst-4-ene diones” (priority 2010, dated 2015)
